Experimental data reported in paper PMC4324447 (Journal of Medicinal Chemistry, 2014).

Assays:
L106P hMC4R = L106P hMC4R (Homo sapiens, UniProt P32245, L106P); test: cAMP based CRE/β-galactosidase reporter gene functional bioassay, L106P hMC4R; assay type: cell-based
WT hMC4R = WT hMC4R (Homo sapiens, UniProt P32245); assay type: cell-based
Sequence of WT hMC4R (P32245 whole entry): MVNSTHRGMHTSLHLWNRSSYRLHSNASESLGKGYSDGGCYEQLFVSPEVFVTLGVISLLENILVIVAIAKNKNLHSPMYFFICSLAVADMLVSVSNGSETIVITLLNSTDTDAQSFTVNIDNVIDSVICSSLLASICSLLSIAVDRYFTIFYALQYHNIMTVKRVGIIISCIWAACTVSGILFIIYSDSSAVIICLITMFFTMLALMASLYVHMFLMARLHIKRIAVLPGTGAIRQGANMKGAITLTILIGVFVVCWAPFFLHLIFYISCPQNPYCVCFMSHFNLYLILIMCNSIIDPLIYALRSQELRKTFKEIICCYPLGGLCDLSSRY

Sequence of L106P hMC4R (P32245 whole entry L106P): as the sequence (P32245 whole entry) above, with L106P counted along it

Q: For `CC(=O)N[C@@H](Cc1cnc[nH]1)C(=O)N[C@H](Cc1ccccc1)C(=O)N[C@@H](CCCN=C(N)N)C(=O)N1Cc2ccccc2C[C@H]1C(N)=O` [EMH4-107, Ac-His-DPhe-Arg-Tic-NH2], which EC50 (L106P hMC4R) is on record?
A: > 100 µM

Q: And the EC50 (WT hMC4R)?
A: > 10 µM
